Patent US20230331815A1 (priority 2020, published 2023)

Key:
SARS-CoV-2 = settings: cited from earlier work
HSPG receptor = test: hLF cell membrane localization, confocal microscopy of VeroE6/T cells; format: cell-based, African green monkey; settings: co-incubation of hLF and heparin
Method: To visualize cell membrane localization of human lactoferrin (hLF), VeroE6/T cells (0.75×10^5 cells/well) were chilled at 4° C. for 1 hr, incubated with 2.5 µM of hLF. Cells were washed, fixed using 4% PFA (Invitrogen), stained with anti-hLF antibody, and fluorescent image was taken under confocal microscope (FIG. 10, middle row). Cell nuclei were visualized using DAPI (FIG. 10, bottom row). To visualize the cell surface and nuclei at the same time, the confocal images above (i.e., FIG. 10, middle and bottom rows) were merged and are presented in FIG. 10, top row. […] To see the effect of heparin on the binding of hLF to the cell surface (specifically the HSPG receptor), cells were co-incubated with hLF and heparin (H), and the confocal image was taken (FIG. 10, right column).

In the case of Ivermectin, the IC50 (SARS-CoV-2) is given as 2200 to 2800 nM.
With heparin [reference compound] the “effect on binding of hLF to the cell surface HSPG receptor” value (HSPG receptor) was “inhibited”.
